From publication PMC6026870, “Selective induction of cancer cell death by VDAC1‐based peptides and their potential use in cancer therapy” (Molecular Oncology, 2018)

Legend:
HeLa cells = assay: Cellular ATP levels, luciferase‐based assay (CellTiter‐Glo); format: cell-based, human; conditions: 3 h, percentage of control, mean ± SE (n = 3) (Fig. 4F)
Experimental: Cellular ATP levels were estimated using a luciferase‐based assay (CellTiter‐Glo; Promega). […] ATP levels were assayed according to the manufacturer's protocol, and luminescence was recorded using an Infinite M1000 plate reader (Tecan, Männedorf, Switzerland).

U‐87MG = assay: Cell death, PI staining and FACS; format: cell-based; conditions: anti‐TfR antibodies (1 : 250) 2 h, then peptide 5 μM 3 h, n = 2 (Fig. 3C)
Experimental: (§1) Leukemia cells, U‐937, MEC‐1 cells (4 × 10^5 or 8 × 10^5 cells/sample, respectively), as well as other leukemia or suspension cell lines, were incubated in 200 μL serum‐free medium with various concentrations of the peptide for 90 min at 23–25 °C, collected by centrifugation (500 g, 5 min), washed with PBS, and analyzed for cell death. Adherent cells (6 × 10^5 mL^−1 at 70–80% confluence) were incubated with the peptide of interest in 500 μL serum‐free recommended culture medium for 3–6 h at 37 °C and 5% CO2. The cells were then trypsinized, centrifuged (1500 g, 5 min), washed with PBS, and analyzed for the desired activity. Following peptide treatment, cells were subjected to cell death analysis. […] PRO software (BD Biosciences, San Jose, CA, USA).
(§2) For each line, cells were incubated with different peptide concentrations, and cell death was determined by PI staining and FACS analysis (Figs 1, 2, 3).

A549 cells = assay: Apoptosis, acridine orange/ethidium bromide staining; format: cell-based, human; conditions: A549, 3 h; quantitation, mean ± SE (n = 3) (Fig. 5E)
Experimental: For PI and annexin V–FITC staining, A549 or MDA‐MB‐231 cells, untreated or treated with VDAC1‐based peptides, were collected (1500 g for 5 min), washed, and resuspended in 200 μL binding buffer (10 mM HEPES/NaOH (pH 7.4), 140 mM NaCl, and 2.5 mM CaCl2). Annexin V–FITC staining was performed according to the recommended protocol. Cells were then washed once with binding buffer and resuspended in 200 μL binding buffer, to which PI was added immediately before flow cytometric analysis. At least 10 000 events were collected, recorded on a dot plot, and analyzed by flow cytometer. Acridine orange/ethidium bromide staining was carried as described previously (Zaid et al., 2005), with cells visualized by fluorescence microscopy (Olympus LX2‐KSP, Tokyo, Japan), and images were captured with a CCD camera. About 200 cells were counted for each experiment.

HK‐I = molecular target: T1, HK‐I (Homo sapiens, UniProt P19367); assay: HK activity assay with purified recombinant HK‐I; format: biochemical; conditions: HK‐I 13 µg/ml pre‐incubated with peptide; 1 mM ATP, G6PDH‐coupled, absorbance at 340 nm (Fig. S3B)
T1 construct: His; made in house; host or cells: Escherichia coli BL21
T1 sequence (P19367 1-917): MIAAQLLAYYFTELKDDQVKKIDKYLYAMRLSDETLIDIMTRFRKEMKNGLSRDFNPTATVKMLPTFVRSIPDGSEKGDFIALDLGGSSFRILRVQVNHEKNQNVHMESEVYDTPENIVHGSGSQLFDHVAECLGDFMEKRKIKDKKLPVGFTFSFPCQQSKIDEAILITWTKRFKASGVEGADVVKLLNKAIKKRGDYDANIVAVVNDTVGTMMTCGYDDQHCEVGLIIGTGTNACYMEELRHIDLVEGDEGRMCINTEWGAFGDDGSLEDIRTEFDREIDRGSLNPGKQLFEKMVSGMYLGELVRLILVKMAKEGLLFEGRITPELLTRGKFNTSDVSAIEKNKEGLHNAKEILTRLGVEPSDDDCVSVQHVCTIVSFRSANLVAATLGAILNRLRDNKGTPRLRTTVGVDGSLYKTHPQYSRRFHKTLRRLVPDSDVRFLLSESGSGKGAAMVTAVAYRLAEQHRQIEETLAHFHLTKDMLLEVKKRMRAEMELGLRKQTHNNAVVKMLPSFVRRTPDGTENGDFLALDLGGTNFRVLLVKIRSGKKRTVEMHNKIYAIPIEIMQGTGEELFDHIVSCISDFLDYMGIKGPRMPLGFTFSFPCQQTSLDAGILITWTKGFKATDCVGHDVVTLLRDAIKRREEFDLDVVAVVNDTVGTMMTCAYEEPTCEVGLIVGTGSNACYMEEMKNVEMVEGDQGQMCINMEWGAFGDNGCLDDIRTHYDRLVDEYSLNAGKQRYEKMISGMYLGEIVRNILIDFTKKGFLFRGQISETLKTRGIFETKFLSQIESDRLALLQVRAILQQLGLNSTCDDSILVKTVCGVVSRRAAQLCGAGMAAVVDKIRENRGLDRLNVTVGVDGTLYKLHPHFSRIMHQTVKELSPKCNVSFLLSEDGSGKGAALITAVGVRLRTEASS
Experimental: Human HK‐I and HK‐II were cloned into plasmid pET‐His DNA and expressed in Escherichia coli BL21 upon IPTG induction. HK was purified from lysed cells using a HiTrap nickel column (GE Healthcare). Following dialysis, the imidazole‐eluted protein was further purified using a Blue HiTrap column (GE Healthcare). HK was eluted using 10 mM glucose, 20 mM Tris/HCl (pH 8.5), 20% glycerol, and 1.5 mM glucose‐6‐phosphate. Fractions were analyzed by SDS/PAGE and tested for HK activity. The purified active fractions were combined and stored in aliquots at −80 °C.
Change in absorbance at 340 nm (NADH production) was spectrophotometrically measured following addition of 1 mM ATP and 0.05 unit·mL^−1 glucose‐6‐phosphate dehydrogenase.
Purified HK-I (13 µg/ml) was pre-incubated with the indicated concentrations of Tf-D-LP4 (●) or R-Tf-D-LP4 (○) and assayed for HK activity as described in Materials and Methods. Change in absorbance at 340 nm (NADH production) was spectrophotometrically measured following addition of 1 mM ATP, and 0.05 unit/ml glucose-6-phosphate dehydrogenase. C. Tf-D-LP4 and R-Tf-D-LP4 solubility. The peptides were dissolved to a final concentration of 5 mM in 5% DMSO and diluted to 1.1 mM in HBSS. Peptide absorbance in the supernatant was measured at 280 nm following centrifugation at 12,000g before and after 75 min incubation at 24 °C. […] Cell death was analyzed using PI and FACS analysis. […]

[1] = tested on: A549 cells (HK‐I in cytosolic fraction); assay: Mitochondria‐bound HK detachment, cell fractionation and immunoblotting; format: cell-based, human; conditions: A549, peptide 3, 5, 10 μM, 3 h; digitonin […]; immunoblot (Fig. 4E)
Experimental: Peptide‐induced HK detachment from mitochondria to the cytosol was also analyzed by immunoblotting. […] Samples were centrifuged at 12 000 g at 4 °C for 10 min, and the obtained supernatants (cytosolic fraction) and pellets (mitochondria) were analyzed by immunoblotting using anti‐HK‐I, anti‐VDAC1, and anti‐GAPDH antibodies, and then with secondary HRP‐conjugated antibodies.

PWR‐1E = assay: Cell death, PI staining and FACS; format: cell-based; conditions: 6 h, PI/FACS (Fig. 2G)
Experimental: as §1, §2

T‐Rex‐293 = assay: Cell death, PI staining and FACS; format: cell-based, human; conditions: T‐Rex‐293, 6 h, PI/FACS (Fig. 2E)
Experimental: as §1, §2

Molecule: CC[C@H](C)[C@H](NC(=O)[C@H](C)NC(=O)[C@@H](N)Cc1c[nH]cn1)C(=O)N[C@@H](Cc1ccc(O)cc1)C(=O)N1CCC[C@H]1C(=O)N[C@@H](CCCNC(=N)N)C(=O)N[C@@H](Cc1c[nH]cn1)C(=O)N[C@H](CO)C(=O)N[C@H](Cc1c[nH]c2ccccc12)C(=O)N[C@@H](C(=O)N[C@H](Cc1c[nH]c2ccccc12)C(=O)N[C@H](CCC(=O)O)C(=O)N[C@H](CCCCN)C(=O)N[C@H](CCCCN)C(=O)N[C@H](CC(C)C)C(=O)N[C@H](CCC(=O)O)C(=O)N[C@@H](C(=O)N[C@H](C)C(=O)N[C@@H](C(=O)N[C@H](CC(N)=O)C(=O)N[C@H](CC(C)C)C(=O)N[C@H](C)C(=O)N[C@H](Cc1c[nH]c2ccccc12)C(=O)N[C@@H](C(=O)N[C@H](C)C(=O)NCC(=O)N[C@H](CC(N)=O)C(=O)N[C@H](CO)C(=O)N[C@H](CC(N)=O)C(=O)N[C@H](CCCCN)C(=O)N[C@H](Cc1c[nH]c2ccccc12)C(=O)N[C@@H](C(=O)N[C@H](Cc1c[nH]c2ccccc12)C(=O)N[C@H](CCCCN)C(=O)O)[C@H](C)O)[C@H](C)O)C(C)C)[C@H](C)O)[C@H](C)O [Tf‐D‐LP4]
- decrease of cellular ATP levels (HeLa cells): about 40%
- decrease in peptide‐induced cell death in anti‐TfR antibody‐treated cells (U‐87MG): about twofold
- apoptotic cell death (acridine orange/ethidium bromide) (A549 cells): over 70%
- inhibition of purified HK‐I activity (HK‐I): but not Tf-D-LP4 inhibits HK-I activity
- increase in HK in the cytosolic fraction [1]: about twofold

Molecule: HAIYPRHSWTWE-199-KKLETA VNLAWTAGNSN-216-KWTWK [Tf‐LP4]
- cell death induction in noncancerous cells (PWR‐1E): almost no cell death induction
- cell death induction in noncancerous cells (T‐Rex‐293): almost no cell death induction
